{"source": "paper PMC8387043", "about": "“Host Poly(A) Polymerases PAPD5 and PAPD7 Provide Two Layers of Protection That Ensure the Integrity and Stability of Hepatitis B Virus RNA” (Journal of Virology, 2021)", "key": {"HBV [1]": {"system": "HBV", "test": "Antiviral assay in HBV-infected primary human hepatocytes (PHH)", "assay_type": "cell-based", "details": "Hepatitis B virus, Hepatocyte"}, "HBV [2]": {"system": "HBV", "test": "AAV-HBV-transduced mouse model", "details": "7 days; for mean reduction of serum HBV DNA vs vehicle / mean reduction of serum HBsAg vs vehicle / reduction of intrahepatic HBsAg levels / reduction of intrahepatic pgRNA levels / reduction of intrahepatic total HBV RNA levels: oral"}, "DENV2": {"system": "DENV2", "test": "Antiviral selectivity panel, CPE in BHK21 cells", "assay_type": "cell-based, Dengue virus 2", "details": "Dengue virus, DENV2, BHK-21", "experimental": "(§1) HepG2.2.15 (30,000 cells/well) were plated in 96-well collagen-treated plates and incubated at 37°C. Compounds were half-log serially diluted and added in duplicate to 96-well microtiter plates. The plates were incubated for a total duration of 6 days, after which the culture medium was removed for the HBsAg and HBeAg CLIA assays (AutoBio Diagnostics Co., China) performed according to the manufacturer’s instructions. Secreted HBV DNA was extracted (Realtime Ready cell lysis kit; Roche, Mannheim, Germany) and quantified in a qPCR assay (LightCycler 480 SYBR green I master mix; Roche) with the 5′-[…]-3′ (sense) and 5′-[…]-3′ (antisense) primers using the PCR conditions of denaturing at 95°C for 5 min followed by 40 cycles of amplification at 95°C for 15 s and 60°C for 30 s. Antiviral selectivity studies against a panel of different DNA and RNA viruses were performed at ImQuest BioSicences (Frederick, MD, USA). Briefly, test compounds were evaluated using 6 doses, including the highest concentration of 30 μM and five serial half-logarithmic dilutions in triplicate for the antiviral assays."}, "WNV": {"system": "WNV", "test": "Antiviral selectivity panel, CPE in Vero76 cells", "assay_type": "cell-based", "details": "West Nile virus, Vero 76", "experimental": "as §1"}, "[3]": {"system": "panel of 10 different RNA and DNA viruses", "test": "Antiviral selectivity panel (summary statement)", "assay_type": "cell-based", "details": "read-out: EC50 against a panel of 10 different RNA and DNA viruses", "experimental": "as §1"}, "HBV [4]": {"system": "HBV", "test": "Intracellular HBV pgRNA and sRNA by Northern blotting in HepG2.2.15 cells", "assay_type": "cell-based, hepatitis B virus", "details": "HepG2.2.15, 48 h, 1,000 nM", "experimental": "Total cellular RNA was extracted from HepG2.2.15 or HepAD38 cells treated with or without antiviral compounds using TRIzol reagent according to the manufacturer's directions (Thermo Fisher Scientific, Waltham, MA). Northern blotting was performed as described previously ([1]). Briefly, total RNA was separated in a 1.5% agarose gel and transferred onto an Amersham Hybond-XL membrane (product no. GERPN303S; GE Healthcare, IL, USA). Membranes were probed with an [α-^32P]UTP (PerkinElmer, CT, USA)-labeled minus strand-specific full-length HBV riboprobe (3.2 kb) transcribed from plasmid pSP65_HBV(+) DNA. Membranes were exposed to a phosphoimager screen, and the hybridization signals were quantified using Image Studio software (Li-Cor Biosciences, NE, USA)."}, "Influenza": {"system": "Influenza", "test": "organism not typed", "assay_type": "cell-based", "details": "MDBK, CPE"}, "Cytotoxicity": {"test": "Cytotoxicity", "assay_type": "cell-based", "description": "(§2) TABLE 3 Cytotoxicity of AB-452 against cells derived from various tissues | column: AB-452 CC50 (μM)"}, "RSV": {"system": "RSV", "test": "Antiviral selectivity panel, CPE in HEp2 cells", "assay_type": "cell-based", "details": "human respiratory syncytial virus, HEp-2"}, "HBV [5]": {"system": "HBV", "test": "Antiviral activity in HBV-infected HepG2-NTCP WT and KO clones", "assay_type": "cell-based, hepatitis B virus", "details": "for EC50: Hepatitis B virus, read-out: HBV infection EC50"}, "in vitro": {"test": "in vitro", "assay_type": "cell-based", "details": "human", "description": "as §2"}, "HSV-1/HSV-2": {"system": "HSV-1/HSV-2", "test": "Antiviral selectivity panel, CPE in Vero cells", "assay_type": "cell-based, herpes simplex virus", "experimental": "as §1"}, "recombinant human PAPD5": {"molecular_target": "T1, recombinant human PAPD5 (Homo sapiens, UniProt Q8NDF8)", "T1 construct": "PAPD5 (amino acids 186 to 518; XM_011523275); 10xHis (N); Flag (N); TEV cleavage site (N); host or cells: E. coli BL21(DE3), vector pET-24a(+)", "T1 sequence (Q8NDF8 106-438 limits assumed)": "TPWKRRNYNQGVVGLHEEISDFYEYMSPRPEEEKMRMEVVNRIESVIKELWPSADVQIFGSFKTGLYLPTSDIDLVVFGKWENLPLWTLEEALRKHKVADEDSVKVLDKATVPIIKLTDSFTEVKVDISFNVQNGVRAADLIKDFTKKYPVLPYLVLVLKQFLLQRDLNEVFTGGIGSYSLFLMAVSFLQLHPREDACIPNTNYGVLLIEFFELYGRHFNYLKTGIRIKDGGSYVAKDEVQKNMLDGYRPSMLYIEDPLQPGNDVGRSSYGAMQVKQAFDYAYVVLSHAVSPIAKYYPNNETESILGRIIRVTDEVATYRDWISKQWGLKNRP", "test": "PAPD5 ATP depletion assay", "assay_type": "biochemical", "details": "truncated recombinant human PAPD5, ATP depletion", "experimental": "Molecular cloning, expression, and purification of the recombinant human PAPD5 and PAPD7 proteins were performed at Xtal BioStructures (MA, USA). PAPD5 (amino acids 186 to 518; GenBank accession no. XM_011523275) and PAPD7 (amino acids 226 to 558; GenBank accession no. NM_006999.6) genes comprising of nucleotidyltransferase and PAP-associated domains were codon optimized, synthesized, and inserted in the expression vector pET-24a(+) for E. coli expression with 10×His-Flag-tobacco etch virus (TEV) tags at the N terminus. The pET-24a(+) constructs were transformed into E. coli-competent cells BL21(DE3). […] Expression of protein was induced for 16 h with 0.2 mM IPTG (isopropyl-β-D-thiogalactopyranoside) at 18°C. […] Roche). Cell suspension was sonicated 8 × 20 s at 27 to 30 W (power level, 3.5 to 4.0) with 40-s breaks between each pulse. Lysate was cleared by centrifugation in a 50-ml conical tube at 20,000 × g for 30 min (Fiberlite F13-14 × 50cy rotor in a Sorvall RC6 centrifuge). Supernatant was incubated with Ni-charged MagBeads (GenScript; catalog no. […] Bound proteins were washed with 50 ml binding buffer and eluted in elution buffer containing a gradient of imidazole ranging from 5 to 500 mM. Peak fractions were pooled and stored in 50% glycerol at -80°C. Reactions were carried out in duplicate in 96-well low-profile, skirted, white plates (catalog no. AB0800WL; […] The reaction mixtures were incubated at room temperature for 3 h, and ATP depletion was monitored by using Kinase-Glo luminescent kinase kit following the manufacturer's instructions (catalog no. V6712; Promega, WI, USA)."}}}
{"smiles": "COCCCOc1cc2c(nc1OC)-c1cc(=O)c(C(=O)O)cn1[C@H](C(C)C)C2", "note": "[AB-452]", "values": [{"measurement": "EC50", "setting": "HBV [1]; read-out: HBV DNA EC50", "value": "0.0042 ± 0.0038", "unit": "µM"}, {"measurement": "EC50", "setting": "HBV [1]; read-out: HBeAg EC50", "value": "0.0037 ± 0.0013", "unit": "µM"}, {"measurement": "EC50", "setting": "HBV [1]; read-out: HBsAg EC50", "value": "0.003 ± 0.0021", "unit": "µM"}, {"measurement": "mean reduction of serum HBV DNA vs vehicle", "setting": "HBV [2]; 0.1 mg/kg twice daily", "value": 0.79, "unit": "log10"}, {"measurement": "mean reduction of serum HBsAg vs vehicle", "setting": "HBV [2]; 0.1 mg/kg twice daily", "value": 0.68, "unit": "log10"}, {"measurement": "reduction of intrahepatic HBsAg levels", "setting": "HBV [2]; 0.1 mg/kg twice daily", "value": 64, "unit": "%"}, {"measurement": "reduction of intrahepatic pgRNA levels", "setting": "HBV [2]; 0.1 mg/kg twice daily", "value": 43, "unit": "%"}, {"measurement": "reduction of intrahepatic total HBV RNA levels", "setting": "HBV [2]; 0.1 mg/kg twice daily", "value": 35, "unit": "%"}, {"measurement": "mean reduction of serum HBV DNA vs vehicle", "setting": "HBV [2]; 0.3 mg/kg twice daily", "value": 1.16, "unit": "log10"}, {"measurement": "mean reduction of serum HBsAg vs vehicle", "setting": "HBV [2]; 0.3 mg/kg twice daily", "value": 0.72, "unit": "log10"}, {"measurement": "reduction of intrahepatic HBsAg levels", "setting": "HBV [2]; 0.3 mg/kg twice daily", "value": 69, "unit": "%"}, {"measurement": "reduction of intrahepatic pgRNA levels", "setting": "HBV [2]; 0.3 mg/kg twice daily", "value": 55, "unit": "%"}, {"measurement": "reduction of intrahepatic total HBV RNA levels", "setting": "HBV [2]; 0.3 mg/kg twice daily", "value": 55, "unit": "%"}, {"measurement": "mean reduction of serum HBV DNA vs vehicle", "setting": "HBV [2]; 1 mg/kg twice daily", "value": 0.94, "unit": "log10"}, {"measurement": "mean reduction of serum HBsAg vs vehicle", "setting": "HBV [2]; 1 mg/kg twice daily", "value": 0.93, "unit": "log10"}, {"measurement": "reduction of intrahepatic HBsAg levels", "setting": "HBV [2]; 1 mg/kg twice daily", "value": 83, "unit": "%"}, {"measurement": "reduction of intrahepatic pgRNA levels", "setting": "HBV [2]; 1 mg/kg twice daily", "value": 63, "unit": "%"}, {"measurement": "reduction of intrahepatic total HBV RNA levels", "setting": "HBV [2]; 1 mg/kg twice daily", "value": 66, "unit": "%"}, {"measurement": "tolerability / body weight", "setting": "HBV [2]; oral, 0.1, 0.3, 1 mg/kg twice daily, vs vehicle", "value": "well tolerated, with no significant change or reduction in body weight"}, {"measurement": "EC50", "setting": "DENV2", "value": "> 30", "unit": "µM"}, {"measurement": "EC50", "setting": "WNV", "value": "> 30", "unit": "µM"}, {"measurement": "EC50", "setting": "[3]", "value": "> 30", "unit": "µM"}, {"measurement": "sRNA (%) of untreated controls", "setting": "HBV [4]", "value": "~18", "unit": "%"}, {"measurement": "EC50", "setting": "Influenza", "value": "> 30", "unit": "µM"}, {"measurement": "CC50", "setting": "Cytotoxicity; African green monkey, Vero cells (kidney)", "value": "> 30", "unit": "µM"}, {"measurement": "CC50", "setting": "Cytotoxicity; HEp2, human epithelial cells", "value": "> 30", "unit": "µM"}, {"measurement": "CC50", "setting": "Cytotoxicity; HeLa, human cervical cancer cells", "value": "> 30", "unit": "µM"}, {"measurement": "CC50", "setting": "Cytotoxicity; cattle (bovine), MDBK cells (kidney)", "value": "> 30", "unit": "µM"}, {"measurement": "CC50", "setting": "Cytotoxicity; hamster, BHK21 cells (kidney)", "value": "> 30", "unit": "µM"}, {"measurement": "CC50", "setting": "Cytotoxicity; human, CEM-SS cells (T lymphoblast)", "value": "> 30", "unit": "µM"}, {"measurement": "CC50", "setting": "Cytotoxicity; human, MRC5 cells (lung fibroblasts)", "value": "> 30", "unit": "µM"}, {"measurement": "EC50", "setting": "RSV", "value": "> 30", "unit": "µM"}, {"measurement": "EC50", "setting": "HBV [5]; P5_KO (T3-4)", "value": "0.0377 ± 0.0083", "unit": "µM"}, {"measurement": "EC50", "setting": "HBV [5]; P5_KO (T3-15)", "value": "0.0393 ± 0.0032", "unit": "µM"}, {"measurement": "EC50", "setting": "HBV [5]; P7_KO (T2-8)", "value": "0.0038 ± 0.0015", "unit": "µM"}, {"measurement": "EC50", "setting": "HBV [5]; T222, P7_KO (T2-22)", "value": "0.0032 ± 0.0019", "unit": "µM"}, {"measurement": "EC50", "setting": "HBV [5]; WT (parent) HepG2-NTCP", "value": "0.0027 ± 0.0018", "unit": "µM"}, {"measurement": "HBV infection FC vs WT", "setting": "HBV [5]; P5_KO (T3-4)", "value": 14.0}, {"measurement": "HBV infection FC vs WT", "setting": "HBV [5]; P5_KO (T3-15)", "value": 14.6}, {"measurement": "HBV infection FC vs WT", "setting": "HBV [5]; P7_KO (T2-8)", "value": 1.4}, {"measurement": "HBV infection FC vs WT", "setting": "HBV [5]; P7_KO (T2-22)", "value": 1.2}, {"measurement": "HBV infection FC vs WT", "setting": "HBV [5]; WT (parent)", "value": 1}, {"measurement": "CC50", "setting": "in vitro", "value": "> 30", "unit": "µM"}, {"measurement": "EC50", "setting": "HSV-1/HSV-2", "value": "> 30", "unit": "µM"}, {"measurement": "IC50", "setting": "recombinant human PAPD5", "value": 0.094, "unit": "µM"}]}
